Experimental data published in US6727263B2, “Indole and 2,3-dihydroindole derivatives, their preparation and use” (H. Lundbeck A/S, priority 1997, dated 2004).
Where a name gives a salt, the structure may show the parent alone. Read-outs that look alike come from different tables or passages of the source.

Columns and labels:
human 5-HT1A receptors = target: T1, human 5-HT1A receptors (Homo sapiens, UniProt P08908); test: Inhibition of 3H-5-CT binding to human 5-HT1A receptors
T1 construct: expressed in transfected cells; host or cells: HeLa cells (HA7), used as cell homogenate
T1 sequence (P08908 1-422): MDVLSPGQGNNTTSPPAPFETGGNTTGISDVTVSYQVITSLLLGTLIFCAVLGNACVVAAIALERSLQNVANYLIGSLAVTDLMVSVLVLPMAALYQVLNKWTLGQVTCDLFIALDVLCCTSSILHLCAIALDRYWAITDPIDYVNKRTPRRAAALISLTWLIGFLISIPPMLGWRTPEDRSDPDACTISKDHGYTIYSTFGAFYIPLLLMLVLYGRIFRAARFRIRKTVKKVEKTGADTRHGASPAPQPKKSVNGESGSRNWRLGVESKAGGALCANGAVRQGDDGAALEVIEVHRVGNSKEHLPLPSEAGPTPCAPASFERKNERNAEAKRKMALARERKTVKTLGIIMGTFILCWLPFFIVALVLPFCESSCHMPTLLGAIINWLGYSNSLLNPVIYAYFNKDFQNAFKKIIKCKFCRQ
Procedure: Inhibition of ^3H-5-CT Binding to Human 5-HT1A Receptors
Human 5-HT1A receptors (40 μg of cell homogenate) were incubated for 15 minutes at 37° C. in 50 mM Tris buffer at pH 7.7 in the presence of ^3H-5-CT. Non-specific binding was determined by including 10 μM of metergoline. The reaction was terminated by rapid filtration through Unifilter GF/B filters on a Tomtec Cell Harvester. Filters were counted in a Packard Top Counter.

[1] = tested on: 3H-5-HT uptake into whole rat brain synaptosomes; test: Inhibition of 3H-5-HT uptake into rat brain synaptosomes; type: biochemical; conditions: 3H-5-HT accumulation into whole rat brain synaptosomes, in vitro; read-out: Inhibition of serotonin reuptake IC50
Procedure: Inhibition of ^3H-5-HT Uptake Into Rat Brain Synaptosomes
Using this method the ability of drugs to inhibit the accumulation of ^3H-5-HT into whole rat brain synaptosomes is determined in vitro.

cloned 5-HT1A receptors = target: T2, cloned 5-HT1A receptors (Homo sapiens, UniProt P08908); test: Antagonism of 5-HT induced inhibition of forskolin induced cAMP accumulation; type: cell-based; conditions: cloned 5-HT1A receptors in transfected HeLa cells (HA7)
T2 construct: expressed in transfected cells; host or cells: HeLa cells (HA7)
T2 sequence (P08908 1-422): T1 sequence (P08908 1-422)
Procedure: The assay was performed as a modification of the method described by Pauwels, P. J et al, Biochem. Pharmacol. 1993, 45, 375.

[2] = read-out: Inhibition of 3H-5-CT binding IC50, cloned human 5-HT1A receptors expressed in transfected HeLa cells (HA7), cell homogenate, 15 minutes at 37° C., pH 7.7
[3] = cloned human 5-HT1A receptors expressed in transfected HeLa cells (HA7), cell homogenate, 15 minutes at 37° C., pH 7.7

Compound | IC50 (human 5-HT1A receptors) [nM] | melting point [°C] | IC50 [1] [nM] | IC50 (human 5-HT1A receptors; [2]) [nM] | IC50 (cloned 5-HT1A receptors) [nM] | IC50 (human 5-HT1A receptors; [3]) [nM]
Cc1cc2c(c(C3CCN(CCc4c[nH]c5cc(Cl)ccc45)CC3)c1)OC(C)(C)C2.O=C(O)/C=C/C(=O)O [Compound 1d, 6-Chloro-3-[2-[4-(2,2,5-trimethyl-2,3-dihydrobenzofuran-7-yl)piperidin-1-yl]ethyl]-1H-indole fumarate] | 55 | 232 to 237 | 36 |  |  | 
c1cc2c(c(N3CCN(CCc4c[nH]c5ccccc45)CC3)c1)OCCO2 [Compound 2a, 3-[2-[4-(1,4-Benzodioxan-5-yl)Piperazin-1-yl]Ethyl]-1H-Indole Hemifumarate] |  |  | 3.5 | 2.9 | 160 | 
Brc1ccc2[nH]cc(CCN3CCN(c4cccc5c4OCCO5)CC3)c2c1.O=C(O)C(=O)O [Compound 1b, 3-[2-[4-(1,4-Benzodioxan-5-yl)piperazin-1-yl]ethyl]-5-bromo-1H-indole oxalate] | 7.2 | 236 to 240 | 2.8 |  | 5000 | 
CC(=O)N1CC(CCN2CCN(c3cccc4c3OCCO4)CC2)c2ccccc21 (stereo not shown) [Compound 2b] |  | 119 to 120 | 12 |  | 250 | 13
Cc1[nH]c2ccccc2c1CCN1CCN(c2cccc3c2OCCO3)CC1.O=C(O)C(=O)O [Compound 1c, 3-[2-[4-(1,4-Benzodioxan-5-yl)piperazin-1-yl]ethyl]-2-methyl-1H-indole oxalate] | 2.5 | 205 to 208 | 45 |  |  | 
Clc1ccc2c(c1)NCC2CCN1CCN(c2cccc3c2OCCO3)CC1.O=C(O)C(=O)O (stereo not shown) [Compound 4d, 3-[2-[4-(1,4-Benzodioxan-5-yl)piperazin-1-yl]ethyl]-6-chloro-2,3-dihydro-1H-indole oxalate] |  | 185 to 188 | 4.3 |  | 890 | 14
Clc1ccc2[nH]cc(CCN3CCN(c4cccc5c4OCCO5)CC3)c2c1 [Compound 1a, 3-[2-[4-(1,4-Benzodioxan-5-yl)Piperazin-1-yl]Ethyl]-5-Chloro-1H-Indole Oxalate] | 17 |  | 5 |  | 2900 | 
CC1(C)Cc2cccc(C3CCN(CCc4c[nH]c5cc(Cl)ccc45)CC3)c2O1 [Compound 1f, 6-Chloro-3-[2-[4-(2,2, -dimethyl-2,3-dihydrobenzofuran-7-yl)piperidin-1-yl]ethyl]-1H-indole oxalate] | 6.1 |  | 5.9 |  | 1800 | 
Clc1ccc2c(CCN3CCN(c4cccc5ccoc45)CC3)c[nH]c2c1 [Compound 1u, 3-[2-[4-(Benzofuran-7-yl)piperazin-1-yl]ethyl]-6-chloro-1H-indole] |  | 202 to 204 |  |  | 2000 | 
COc1ccc2[nH]cc(CCN3CCN(c4cccc5c4OCCO5)CC3)c2c1 [Compound 1i, 3-[2-[4-(1,4-Benzodioxan-5-yl)piperazin-1-y]ethyl]-5-methoxy-1H-indole hemioxalate] | 6.9 |  | 6.8 |  | 620 | 
Clc1cc2c(c(N3CCN(CCc4c[nH]c5cc(Cl)ccc45)CC3)c1)OCCO2.O=C(O)C(=O)O [Compound 1l, 6-Chloro-3-[2-[4-(7-chloro-1,4-benzodioxan-5-yl)piperazin-1-yl]ethyl]-1H-indole oxalate] | 12 | 237 to 238 | 7.7 |  |  | 
Clc1ccc2c(CCN3CCN(c4c(Cl)ccc5c4OCCO5)CC3)c[nH]c2c1.O=C(O)C(=O)O [Compound 1m, 6-Chloro-3-[2-[4-(6-Chloro-1,4-benzodioxan-5-yl)piperazin-1-yl]ethyl]-1H-indole oxalate] | 99 | 216 to 217 | 57 |  |  | 
Fc1ccc2[nH]cc(CCN3CCN(c4cccc5c4OCCO5)CC3)c2c1.O=C(O)C(=O)O [Compound 1h, 3-[2-[4-(1,4-Benzodioxan-5-yl)piperazin-1-yl]ethyl]-5-fluoro-1H-indole oxalate] | 4.6 | 224 to 226 | 1.7 |  | 280 | 
CC1(C)Cc2cccc(C3=CCN(CCc4c[nH]c5cc(Cl)ccc45)CC3)c2O1 [Compound 1g, 6-Chloro-3-[2-[4-(2,2,-dimethyl-2,3,-dihydrohydrobenzofuran-7-yl)-1,2,3,6-tetrahydro-1-pyridyl]ethyl]-1H-indole oxalate] | 2.8 |  | 3.8 |  | 1800 | 
3-[2-[4-(1,4-Benzodioxan-5-yl)Piperazin-1-yl]Ethyl]-6-Chloro-1H-Indole Hemifumarate [Compound 3a] |  |  | 5.3 | 1.2 | 500 | 
CN1CC(CCN2CCN(c3cccc4c3OCCO4)CC2)c2ccccc21 (stereo not shown) [Compound 6a, 3-[2-[4-(1,4-Benzodioxan-5-yl)Piperazin-1-yl]Ethyl]-2,3-Dihydro-1-Methyl-1H-Indole Oxalate] |  |  |  |  | 100 | 
Clc1ccc2[nH]cc(CCN3CCN(c4cccc5c4OCC5)CC3)c2c1.O=C(O)C(=O)O [Compound 1n, 5-Chloro-3-[2-[4-(2,3-dihydrobenzofuran-7-yl)piperazin-1-yl]ethyl]-1H-indole oxalate] | 8.2 | 134 to 138 | 2.1 |  | 1900 | 
Clc1ccc2c(CCN3CCN(c4cccc5c4SCCC5)CC3)c[nH]c2c1 [Compound 1t] |  |  |  |  | 5900 | 
3-[2-[4-(1,4-Benzodioxan-5-yl)piperazin-1-yl]ethyl]-5-methyl-1H-indole hemifumarate [Compound 1j] |  |  | 3.5 | 14 | 980 | 
Clc1ccc2c(CCN3CC=C(c4cccc5c4OCCO5)CC3)c[nH]c2c1.O=C(O)C(=O)O [Compound 1v, 3-[2-[4-(1,4-Benzodioxan-5-yl)-1,2,3,6-tetrahydropyridin-1-yl]ethyl]-6-chloro-1H-indole oxalate] | 0.81 | 240 to 247 | 0.85 |  | 3300 | 
CC1(C)COc2c(N3CCN(CCc4c[nH]c5cc(Cl)ccc45)CC3)cc(Cl)cc21 [Compound 3c, 6-Chloro-3-[2-[4-(5-chloro-3,3-dimethyl-2,3-dihydrobenzofuran-7-yl)piperazin-1-yl]ethyl]-1H-indole hemifumarate] |  |  |  |  | 2600 | 
CC1(C)CCc2cc(Cl)cc(N3CCN(CCc4c[nH]c5cc(Cl)ccc45)CC3)c2O1.O=C(O)/C=C/C(=O)O [Compound 3d, 6-Chloro-3-[2-[4-(6-chloro-2,2-dimethyl-3,4-dihydro-2H-1-benzopyran-8-yl)piperazin-1yl]ethyl]-1H-indole fumarate] | 21 | 224 to 225 | 15 |  | 2300 | 
3-[2-[4-(1,4-Benzodioxan-5-yl)piperazin-1-yl]ethyl]-6-methyl-1H-indole hemifumarate [Compound 1k] |  |  | 18 | 2 | 580 | 
Clc1ccc2c(CCN3CC=C(c4cccc5c4OCC5)CC3)c[nH]c2c1.O=C(O)C(=O)O [Compound 1x, 6-Chloro-3-[2-[4-(2,3-dihydrobenzofuran-7-yl)-1,2,3,6-tetrahydropyridin-1-yl]ethyl]-1H-indole oxalate] |  | 211 to 214 |  |  | 3000 | 
CC1(C)Cc2cc(Cl)cc(N3CCN(CCc4c[nH]c5ccccc45)CC3)c2O1 [Compound 3b, 3-[2-[4-(5-Chloro-2,2-dimethyl-2,3-dihydrobenzofuran-7-yl)piperazin-1-yl]ethyl]-1H-indole hemifumarate] |  |  | 8.3 | 3.6 |  | 
Clc1ccc2c(CCN3CCN(c4cccc5c4OCC5)CC3)c[nH]c2c1.O=C(O)C(=O)O [Compound 1o, 6-Chloro-3-[2-[4-(2,3-dihydrobenzofuran-7-yl)piperazin-1-yl]ethyl]-1H-indole oxalate] |  | 205 to 207 |  |  | 3200 | 
Clc1cccc2[nH]cc(CCN3CCN(c4cccc5c4OCCO5)CC3)c12.O=C(O)C(=O)O [Compound 1e, 3-[2-[4-(1,4-Benzodioxan-5-yl)piperazin-1-yl]ethyl]-4-chloro-1H-indole oxalate] | 11 | 210 to 218 | 0.25 |  | 2400 | 
